Laboratory results reported in patent US20170224823A1, “PLATINUM-CATALYZED SILICONE DRUG DELIVERY DEVICES AND METHODS OF USE THEREOF” (priority 2014, published 2017).
Values joined by “and” are separate entries in the source; they are usually repeats but may differ in a detail not shown here. Equal values may be shown once. Values belong to the molecule of their own block, whether it stands above or below them.

What was measured:
[1] = tested on: HIV-1 strains harboring different resistance-inducing mutations; conditions: cited from earlier work
[2] = In vitro release from addition-cured (Pt) LSR9-9508-30 matrix vaginal rings; format: physicochemical; conditions: for Total release, % of initial drug loading / Time after which release ceased: LSR9-9508-30 matrix rings, 21-day study; for Total release, % of initial drug loading: non-micronized LNG, micronized EE, micronized ET; for Release mechanism: LSR9-9508-30 rings, duration of the 21-day study
Description: (§1) Formulations of dapivirine (DAP or DPV) with a contraceptive hormone were investigated for use with a multipurpose prevention technology (MPT) intravaginal ring system. Dapivirine and non-micronized levonorgestrel (LNG), micronized ethinyl estradiol (EE), or micronized etonogestrel (ET) were studied in condensation cured (Sn) or addition cured (Pt) silicone systems. Matrix-type vaginal rings were manufactured by injection moulding, using either MEDS-6382 (condensation-cured) or LSR9-9508-30 (addition-cured) silicone elastomers. Release of DAP and LNG from the LSR9-9508-30 rings was diffusion-controlled for the duration of the 21-day study. Total DAP release was 41% of the initial loading, while only 29% LNG loading was released. Both drugs would have continued to be released beyond 21 days had the study had continued. However, release of EE and ET ceased after 13 and 8 days respectively, with only 36 and 23% of initial drug loading released.

[3] = In vitro release from platinum-catalyzed silicone matrix rings (200 mg dapivirine, 32 mg levonorgestrel), storage stability study; format: physicochemical; conditions: for Release at week-two time point: rings with micronized levonorgestrel and micronized dapivirine, stored two weeks
Description: Platinum-catalyzed silicone matrix intravaginal rings comprising 200 mg micronized dapivirine and 32 mg levonorgestrel (both micronized and non-micronized) were utilized in this study. FIGS. 1 and 2 depict the mean and cumulative daily release of dapivirine and levonorgestrel versus time for micronized levonorgestrel and micronized dapivirine on storage stability. […] For the non-micronized levonorgestrel rings, there was less than 100% recovery of the amount of levonorgestrel added in two of the rings tested for content after initial release rate testing. […] All of the levonorgestrel release rate results obtained in this study are likely to have been influenced by this phenomenon.

wild-type HIV-1 strains = conditions: cited from earlier work
Solubility in water = format: physicochemical
[4] = Raman microscopy to assess drug binding to poly(methylhydrosiloxane); format: physicochemical; conditions: Raman microscopy (FIG. 12)
Description: FIG. 12 depicts Raman microscopy studies to assess drug binding to poly(methylhydrosiloxane). LNG: levonorgestrel, DAP: dapivirine, PRG: progesterone, EE: Ethynyl estradiol.
To determine the binding site of compounds to the silicone polymer, Raman spectroscopy studies were undertaken. In the first study, scanning Raman microscopy was used as a method for mapping drug distribution in silicone elastomer films. Thin films were created using NuSil DDU-4320 silicone elastomer and either dapivirine, micronized levonorgestrel, or non-micronized levonorgestrel. 400 points were sampled. In the second study, Raman microscopy was used as a tool to assess binding to poly(methylhydrosiloxane).

[5] = In vitro release from condensation-cured (Sn) MEDS-6382 matrix vaginal rings; format: physicochemical
Description: as §1

[6] = Recovery from NuSil DDU-4320 platinum-catalyzed silicone slabs or rings; format: physicochemical; conditions: DDU-4320 slab
Description: (§2) Methods for assaying the percent of compound having a terminal alkene, alkyne or carbonyl group recoverable from or covalently bound to a platinum-catalyzed silicone intravaginal drug delivery device of the invention are commonly known in the art. For example, silicone intravaginal rings, slabs or IUDs can be added to a glass flask. 5 mL of a 2.5 mg/mL norethindrone solution (NOR; present as an internal standard) in methanol can be added to the flask along with 95 mL of dichlormethane (DCM). The flask can be placed in a rotating orbital incubator set at 37° C. and 60 rpm for 72 hours. A 2 mL aliquot of the cooled extraction mixture can be transferred to a glass centrifuge tube and allowed to evaporate to dryness. The dried samples can be reconstituted in 10 mL of methanol with vortex mixing for 30 seconds and sonication for 40 minutes. A 1:10 dilution of this solution can be prepared using methanol and water such that the final solvent composition is 1:1. This solution and be analyzed by HPLC. Recovery can be expressed as a percentage of predicted compound as compared to the original amount of compound present in the silicone intravaginal ring, slab or IUD. The final data can be corrected based on the recovery of a control solution of known compound concentration that was “extracted” at the same time.
The influence of silicone polymer system cure time, and cure temperature on levonorgestrel was also investigated. With the understanding that the NuSil DDU-4320 could be cured at a lower temperature than NuSil MED-4870, process optimization proceeded with NuSil DDU-4320.
For example, at a cure temperature and time of 100° C. for 7 minutes, approximately 87% of the LNG added was recovered using non-micronized LNG, compared with only 12% for micronized LNG. LNG recovery decreased with increasing cure temperature and cure time for both the micronized and non-micronized LNG. For example, the recovery of micronized LNG falls from 35% to zero as the cure time at 100° C. is increased from 1.5 minutes to 30 minutes. Similarly, the recovery of non-micronized LNG falls from approximately 87% to 59% as the cure temperature is increased from 60° C. to 160° C. at a cure time of 7 minutes.
In an effort to define the maximum possible recovery of contraceptive using the best possible conditions for manufacture, further silicone slabs were prepared with non-micronized LNG. In this case, a low temperature manufacture at 60° C. with a cure time of 6 minutes was compared to a shorter higher temperature cure of 100° C. for 1.5 minutes. In addition, to define precisely the recovery of LNG expected from a ring compared to a slab, intravaginal rings were also prepared under the above conditions. […]

[7] = Recovery from NuSil MED-4870 platinum-catalyzed silicone slabs; format: physicochemical; conditions: for % LNG Recoverable: MED-4870 slab
Description: as §2
Higher cure temperatures were required for the NuSil MED-4870 system to ensure sufficient curing to allow for slab removal from the molds. […]

Compound: Cc1cc(C)c(Nc2ccnc(Nc3ccc(C#N)cc3)n2)c(C)c1 [DAP, 4-[[4-[(2,4,6-trimethylphenyl)amino]-2-pyrimidinyl]amino]benzonitrile]
Activity against HIV-1 strains harboring resistance-inducing mutations [1]: potent activity
Total release, % of initial drug loading [2]: 41%
Release mechanism [2]: diffusion-controlled
Release at week-two time point [3]: reasonable dapivirine release
Activity against wild-type HIV-1 strains (wild-type HIV-1 strains): potent activity
Solubility in water (Solubility in water): virtually insoluble in water
solubility (Solubility in water; water): < 1 µg/mL
Covalent binding to the silicone polymer [4]: do not covalently bind

Compound: C#C[C@]1(O)CC[C@H]2[C@@H]3CCc4cc(O)ccc4[C@H]3CC[C@@]21C [EE, Ethynyl Estradiol]
Time after which release ceased [2]: 13 days
Total release, % of initial drug loading [2]: 36%
Total release, MEDS-6382 compared with LSR9-9508-30 [5]: greater from MEDS-6382 than LSR9-9508-30
Covalent binding to the silicone polymer [4]: covalently bind

Compound: C#C[C@]1(O)CC[C@H]2[C@@H]3CCC4=CC(=O)CC[C@@H]4[C@H]3C(=C)C[C@@]21CC [ET, etonogestrel]
Time after which release ceased [2]: 8 days
Total release, % of initial drug loading [2]: 23%
Total release, MEDS-6382 compared with LSR9-9508-30 [5]: greater from MEDS-6382 than LSR9-9508-30

The remaining lines, values ahead:

Total release, % of initial drug loading [2]: 29%
Release mechanism [2]: diffusion-controlled
Release from platinum catalyzed silicone rings, non-micronized compared to micronized ([3]; non-micronized levonorgestrel): increased release
Release of levonorgestrel detected initially (T0) ([3]; rings with micronized levonorgestrel): negligible release
Release at week-two time point [3]: lack of levonorgestrel release
Covalent binding to the silicone polymer [4]: covalently bind
% LNG Recoverable ([6]; micronized, 60° C., 7 min): 75%
% LNG Recoverable ([6]; micronized, 80° C., 7 min): 50%
% LNG Recoverable ([6]; micronized, 100° C., 1.5 min): 35% and 37%
% LNG Recoverable ([6]; micronized, 100° C., 3 min): 25%
% LNG Recoverable ([6]; micronized, 100° C., 7 min): 10% and 18%
% LNG Recoverable ([6]; micronized, 100° C., 15 min): 2%
% LNG Recoverable ([6]; micronized, 100° C., 120 min): 0%
% LNG Recoverable ([6]; micronized, 120° C., 7 min): 0%
% LNG Recoverable ([6]; micronized, 140° C., 7 min): 0%
% LNG Recoverable ([6]; micronized, 160° C., 7 min): 0%
% LNG Recoverable ([6]; non-micronized, 80° C., 7 min): 83%
% LNG Recoverable ([6]; non-micronized, 100° C., 3 min): 82%
% LNG Recoverable ([6]; non-micronized, 100° C., 15 min): 85%
% LNG Recoverable ([6]; non-micronized, 100° C., 30 min): 80%
% LNG Recoverable ([6]; non-micronized, 100° C., 120 min): 75%
% LNG Recoverable ([6]; non-micronized, 120° C., 7 min): 83%
% LNG Recoverable ([6]; non-micronized, 140° C., 7 min): 82% and 80%
% LNG Recoverable ([6]; non-micronized, 160° C., 7 min): 58%
% LNG Recoverable ([6]; non-micronized, 160° C., 7 min, listed as levonorgestrel): 59%
Levonorgestrel content of slab ([7]; NuSil MED-4870 slab heated at 160° C. for 5 minutes): 47%
% LNG Recoverable ([7]; micronized, 120° C., 10 min): 0%
% LNG Recoverable ([7]; micronized, 140° C., 10 min): 0%
% LNG Recoverable ([7]; micronized, 160° C., 1.5 min): 0%
% LNG Recoverable ([7]; micronized, 160° C., 7 min): 0%
% LNG Recoverable ([7]; micronized, 160° C., 10 min): 0%
% LNG Recoverable ([7]; micronized, 160° C., 15 min): 0%
% LNG Recoverable ([7]; micronized, 160° C., 20 min): 0%
% LNG Recoverable ([7]; micronized, 160° C., 30 min): 0%
% LNG Recoverable ([7]; micronized, 160° C., 120 min): 0%
% LNG Recoverable ([7]; micronized, 180° C., 10 min): 0%
% LNG Recoverable ([7]; micronized, 200° C., 10 min): 0%
% LNG Recoverable ([7]; non-micronized, 120° C., 10 min): 65%
% LNG Recoverable ([7]; non-micronized, 140° C., 10 min): 55%
% LNG Recoverable ([7]; non-micronized, 160° C., 1.5 min): 65%
% LNG Recoverable ([7]; non-micronized, 160° C., 7 min): 47%
% LNG Recoverable ([7]; non-micronized, 160° C., 10 min): 60%
% LNG Recoverable ([7]; non-micronized, 160° C., 15 min): 33%
% LNG Recoverable ([7]; non-micronized, 160° C., 20 min): 28%
% LNG Recoverable ([7]; non-micronized, 160° C., 30 min): 10%
% LNG Recoverable ([7]; non-micronized, 160° C., 120 min): 0%
% LNG Recoverable ([7]; non-micronized, 180° C., 10 min): 8%
% LNG Recoverable ([7]; non-micronized, 200° C., 10 min): 0%
Compound: C#C[C@]1(O)CC[C@H]2[C@@H]3CCC4=CC(=O)CC[C@@H]4[C@H]3CC[C@@]21CC [LNG, 13-ethyl-17-ethynyl-17-hydroxy-1,2,6,7,8,9,10,11,12,13,14,15,16,17-tetrad-ecahydrocyclopenta[a]phenanthren-3-one]

Covalent binding to the silicone polymer [4]: covalently bind
Compound: CC(=O)[C@H]1CC[C@H]2[C@@H]3CCC4=CC(=O)CC[C@]4(C)[C@H]3CC[C@]12C [PRG, Progesterone]
